Consider three molecules from patent EP2384752A1, “Combination preparation comprising a phosphodiesterase inhibitor and a COX inhibitor for treating cancer” (Universitätsklinikum Hamburg-Eppendorf, priority 2010, dated 2011).

For experiment [1], the system named is Zelllinien des kleinzelligen Bronchialkarzinoms H69, SW2, OH1, OH3 und H82. Nature of the experiment: XTT cell proliferation test, single agents Indometacin or IBMX. Type of experiment: cell-based. The source says: Vor Beginn der Versuche zur Zellproliferation wurde zunächst für jede Zelllinie eine Eichkurve erstellt, um die optimale Zellzahl pro ml für die nachfolgenden Versuchsreihen zu ermitteln. Dafür wurde das Zellproliferationskit XTT (Roche, Penzberg, Deutschland) verwendet. Hierbei wird durch ein in allen vitalen Zellen vorhandenes Enzym das gelbe Tetrazoliumsalz XTT zum orangen Salz Formazan reduziert. Somit stellt die Extinktion der jeweiligen Zellkulturprobe ein Maß für die Anzahl der vitalen Zellen dar.
Die Zelllinien wurden in sieben verschiedenen Konzentrationen zwischen 10^4 und 10^7 Zellen pro ml in Mikrotiterplatten mit 96 Vertiefungen ausgesät. In jede Vertiefung wurde zunächst 10 µl PBS (pH 7,4) vorgelegt und dann 90 µl der Zellsuspension mit der jeweiligen Zellzahl pro ml zugegeben. Für jede Zelllinie wurden sechs parallele Ansätze hergestellt. Nach 72 Stunden Inkubation unter Standardbedingungen wurden 50 µl XTT Labeling Mixture pro Vertiefung zugegeben. Nach sechs Stunden wurde die Absorption bei 450 nm in einem Dynatech MR 3.13 Mikroelisa Reader gemessen und anhand der erzielten Werte Eichkurven erstellt. Figur 1 zeigt die Eichkurven für die Zelllinien H69, SW2, OH1, OH3 und H82OH1-Zellen. Die Zellzahlen wurden so gewählt, dass sich die Zellen bei ungehindertem Wachstum in der exponentiellen Wachstumsphase befanden. So ergab sich eine Konzentration von 160.000 Zellen pro ml für die Zelllinien OH3 und SW2, 300.000 Zellen pro ml für OH1, 500.000 Zellen pro ml für H69 und 750.000 Zellen pro ml für H82.
Dieser Versuch wurde mit allen oben genannten Zelllinien durchgeführt. Dafür wurden zunächst Lösungen der einzelnen Wirkstoffe in die Vertiefungen einer 96-Loch-Mikrotiterplatte gegeben. Die in Kulturmedium vorliegenden Zellsuspensionen wurden zugegeben, sodass sich ein Gesamtvolumen von 100 µl pro Vertiefung ergab.
Die Zellzahl für die jeweiligen Zelllinien betrug für SW2 205.700 Zellen pro ml, für H82 964.000 Zellen pro ml, für OH1 385.700 Zellen pro ml, für OH3 205.700 Zellen pro ml und für H69 643.000 Zellen pro ml. Da zum Lösen von Indometacin 5% Ethanol und zum Lösen von IBMX 1 % Ethanol verwendet wurde, bestand die Kontrolle aus 70 µl Zellsuspension mit der jeweiligen Zellzahl pro ml, 20 µl Medium und 10 µl Alkoholkontrolle mit einer Konzentration von 6% Ethanol. Im Gesamtvolumen von 100 µl ergab sich somit eine Alkoholkonzentration von 0,6%. Der Leerwert bestand aus 100 µl Medium. Jede gewählte Kombination der Wirkstoffe in den unterschiedlichen Konzentrationen wurde pro Versuch sechsfach getestet.
For orientation: Tetrazolium dyes change colour on reduction, which living cells bring about.

In experiment [2] the test system is H69 Zellen. Nature of the experiment: XTT cell proliferation test, Meloxicam, Sildenafil and their combination. Type of experiment: cell-based. The following applies: Meloxicam alone, compared with Indomethacin. The protocol: Die zu untersuchenden Zelllinien wurden mit den in den Figuren angegeben Konzentrationen von Indometacin und IBMX behandelt. Die Proliferationsversuche wurden in 96-Loch-Mikrotiterplatten durchgeführt; das Gesamtvolumen pro Vertiefung betrug 100 µl. 80 µl Zellsuspension wurde pro Vertiefung verwendet. Die Zellzahl der jeweils verwendeten Suspensionen betrug für SW2 180.000 Zellen pro ml, für OH1 338.000 Zellen pro ml, für OH3 180.000 Zellen pro ml und für H69 563.000 Zellen pro ml. Da zum Lösen sowohl von Indometacin 20% Ethanol als auch von IBMX 20% Ethanol verwendet wurde, bestand die Kontrolle aus 80 µl Zellsuspension mit der jeweiligen Zellzahl pro ml und 20 µl Alkoholkontrolle mit einer Konzentration von 20% Ethanol. Im Gesamtvolumen von 100 µl ergab sich so eine Alkoholkonzentration von 4%. Eine weitere Kontrolle bestand aus 80 µl Zellsuspension mit der jeweiligen Zellzahl pro ml und 20 µl Kulturmedium, um den wachstumshemmenden Effekt vom Ethanol erkennen zu können. Der Leerwert bestand aus 100 µl Kulturmedium.
H69 Zellen wurden wie in Beispiel 5 beschrieben mit Meloxicam und Sildefanil behandelt. […] Die Ergebnisse sind in Figur 10 dargestellt. Auch hier lässt sich eine signifikant synergistische Wirkung auf die Proliferation der H69-Zellen beobachten.

Where [3] appears, read: 72 h, read-out: Inhibierung auf einen Wert von % der Alkoholkontrolle.

In the case of `CC(C)Cn1c(=O)n(C)c(=O)c2[nH]cnc21` [IBMX, 1-Methyl-3-(2-methylpropyl)-7H-purine-2,6-dione], the activity at 1500 µM in experiment [1] (72 h, 1,5 mM IBMX, cell line not stated, read-out: Hemmung, % der Alkoholkontrolle) was found to be 51%. Also, the activity at 1250 µM in experiment [1] (72 h, 1,25 mM IBMX, cell line not stated, read-out: Hemmung, % der Alkoholkontrolle) was 52%. The activity at 2000 µM in experiment [1] (72 h, 2,0 mM IBMX, cell line not stated, read-out: Hemmung, % der Alkoholkontrolle) was determined as 45%. Moreover, the activity at 750 µM in experiment [1] (72 h, from 0,75 mM IBMX, cell line not stated, data not shown, read-out: Hemmung, % der Alkoholkontrolle) is approximately 80%. In experiment [1] (single agent), the “Wirkung auf die verschiedenen Zellen des kleinzelligen Bronchialkarzinoms” value is given as “antiproliferative Wirkung”.
For `COc1ccc2c(c1)c(CC(=O)O)c(C)n2C(=O)c1ccc(Cl)cc1` [Indometacin, 2-[1-(4-Chlorbenzoyl)-5-methoxy-2-methyl-1H-indol-3-yl]essigsäure], in experiment [1] (setting [3]), the activity at 200 µM was approximately 60% and the activity at 300 µM was approximately 60%.
In the case of `Cc1cnc(NC(=O)C2=C(O)c3ccccc3S(=O)(=O)N2C)s1` [Meloxicam, 4-Hydroxy-2-methyl-N-(5-methyl-2-thiazolyl)-2H-1,2-benzothiazin-3-carboxamid-1,1-dioxid], the “Wirkung bei H69-Zellen” value in experiment [2] is recorded as “wirkt bei H69-Zellen in den gleichen Dosierungen wie Indomethacin”.
